Assay results as given in ChEMBL document CHEMBL3137667, “[Drug-induced liver injury; fourteenth updated edition of the bibliographic database of liver injuries and related drugs]” (Gastroenterol Clin Biol, 2004).

Legend:
[1] = Highest frequency of moderate liver toxicity observed during clinical trials, expressed as a percentage. [column '% BIOL' in source]; details: human
[2] = Highest frequency of acute liver toxicity observed during clinical trials, expressed as a percentage. [column '% AIGUE' in source]; details: human
[3] = Presence of at least one case with successful reintroduction. [column 'REINT' in source]; details: human
[4] = Times to onset, minimal and maximal, observed in the indexed observations. [column 'DELAI' in source]; details: human
[5] = Proposed mechanism(s) of liver damage. [column 'MEC' in source]; details: human
[6] = human, serum
[7] = human, serum; remark: listed apart in the source
[8] = human
[9] = human; remark: listed apart in the source
[10] = human; remark: listed apart in the source
[11] = human, serum, 4383 h
[12] = human; remark: listed apart in the source
[13] = human; remark: listed apart in the source
[14] = human; remark: listed apart in the source
[15] = human; remark: listed apart in the source
[16] = human; remark: listed apart in the source
[17] = human; remark: listed apart in the source
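Throughout, for Hepatotoxicity (association with vascular disease): count of indexed literature references reporting vascular liver injury in humans, e.g. peliosis hepatitis, hepatic veno-occlusive disease or Budd-Chiari syndrome.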
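Throughout, for Hepatotoxicity (benign tumour): value is a count of indexed literature references citing a benign tumour confirmed by histopathology.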
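Throughout, for Hepatotoxicity (choleostasis): human cholestatic liver injury, shown by histopathology or by peak ALT or AST elevation over alkaline phosphatase ratio below 2, value counts indexed literature reports.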
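Throughout, for Hepatotoxicity (chronic liver disease): chronic liver injury confirmed by histopathology or persistently raised serum aminotransferase activity beyond 6 months, value given as the count of indexed literature references.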
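Throughout, for Hepatotoxicity (cirrhosis): value is a count of indexed literature references reporting cirrhosis confirmed by histopathology.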
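Throughout, for Hepatotoxicity (cytolytic): human cytolytic liver injury, shown by histopathology or by a ratio above 5 of peak ALT or AST elevation to alkaline phosphatase elevation, value counts indexed references.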
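Throughout, for Hepatotoxicity (granulomatous hepatitis): value is a count of indexed literature references reporting granulomatous liver disease confirmed by histopathology.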
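Throughout, for Hepatotoxicity (malignant tumour): malignant tumour confirmed by histopathology, value gives the count of indexed literature references reporting it.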
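Throughout, for Hepatotoxicity (severe hepatitis): human clinical data: severe hepatitis, meaning potentially life-threatening liver failure or clinically observed cases, the value counts how many indexed literature references report it.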
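Throughout, for Hepatotoxicity (steatosis): steatosis confirmed by histopathology, value is the count of indexed references.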

Compound | Hepatotoxicity (moderate) [1] | Hepatotoxicity (acute) [2] | Hepatotoxicity (successful reintroduction) [3] | Hepatotoxicity (time to onset) [4] | Hepatotoxicity (mechanism) [5] | Hepatotoxicity (moderate) [6] | Hepatotoxicity (acute) [7] | Hepatotoxicity (cytolytic) [8] | Hepatotoxicity (choleostasis) [9] | Hepatotoxicity (severe hepatitis) [10] | Hepatotoxicity (chronic liver disease) [11] | Hepatotoxicity (cirrhosis) [12] | Hepatotoxicity (granulomatous hepatitis) [13] | Hepatotoxicity (association with vascular disease) [14] | Hepatotoxicity (steatosis) [15] | Hepatotoxicity (malignant tumour) [16] | Hepatotoxicity (benign tumour) [17]
Nc1nc(O)c2ncn(COC(CO)CO)c2n1 [GANCICLOVIR] | 55% | 0% | yes | 1 week - 26 days | Dose-dependant | 9 | 1 | 1 | 1 | 0 | 0 | 0 | 0 | 0 | 0 | 0 | 0
NC(=O)NO [HYDROXYUREA] | 12.5% | 0% | yes | 1 day - 3 months | Allergic | 5 | 4 | 3 | 1 | 1 | 0 | 0 | 2 | 0 | 0 | 0 | 0
O=C(CCCCC(=O)Nc1c(I)cc(I)c(C(=O)O)c1I)Nc1c(I)cc(I)c(C(=O)O)c1I [IODIPAMIDE] | 18.3% | 0% | yes | 3 days - 1 week | Dose-dependant | 2 | 6 | 6 | 0 | 0 | 0 | 0 | 0 | 0 | 1 | 0 | 0
CC(C)NNC(=O)COc1ccc(Cl)cc1 [IPROCLOZIDE] | 0% | 0% | yes | 1 week - 1 month | Toxic Metabolite | 0 | 3 | 3 | 1 | 2 | 0 | 0 | 0 | 0 | 0 | 0 | 0
Cc1oncc1C(=O)Nc1ccc(C(F)(F)F)cc1 [LEFLUNOMIDE] | 56.7% | 10% | yes | 4 weeks - 20 months | Dose-dependant | 36 | 6 | 5 | 0 | 3 | 0 | 1 | 0 | 0 | 1 | 0 | 0
